Laboratory results reported in ChEMBL document CHEMBL4840307, “Synthesis and biological evaluation of 1-(4-(piperazin-1-yl)phenyl)pyridin-2(1H)-one derivatives as potential SSRIs” (Eur J Med Chem, 2021).
Active and inactive are the calls of the source. The rule behind the calls is not given here.

What was measured:
[1] = biological target: Sodium-dependent serotonin transporter (Rattus norvegicus, UniProt P31652); assay: Inhibition of serotonin transporter expressed in rat brain tissue assessed as inhibition of [3H]-5-hydroxytryptamine reuptake measured after 15 mins by scintillation counting analysis; format: tissue-based
Sodium-dependent serotonin transporter, sequence (P31652 whole entry): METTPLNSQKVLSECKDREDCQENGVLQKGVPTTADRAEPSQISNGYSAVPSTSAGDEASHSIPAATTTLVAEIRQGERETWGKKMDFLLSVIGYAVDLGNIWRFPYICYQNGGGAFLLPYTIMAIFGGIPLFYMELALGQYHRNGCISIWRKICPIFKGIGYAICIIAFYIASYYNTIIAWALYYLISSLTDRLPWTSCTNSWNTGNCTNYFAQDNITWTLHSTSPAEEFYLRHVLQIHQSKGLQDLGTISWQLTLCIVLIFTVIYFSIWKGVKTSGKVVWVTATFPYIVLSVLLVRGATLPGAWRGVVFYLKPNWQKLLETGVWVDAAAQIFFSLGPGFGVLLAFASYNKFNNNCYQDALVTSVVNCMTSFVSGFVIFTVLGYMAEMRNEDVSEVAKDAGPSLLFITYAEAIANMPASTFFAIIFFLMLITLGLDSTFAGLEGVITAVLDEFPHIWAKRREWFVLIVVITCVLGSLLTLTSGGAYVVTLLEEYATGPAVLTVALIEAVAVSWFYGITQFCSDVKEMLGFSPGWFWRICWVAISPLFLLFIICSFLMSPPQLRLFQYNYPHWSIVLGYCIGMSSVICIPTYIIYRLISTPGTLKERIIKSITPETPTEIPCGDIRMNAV

[2] = Metabolic stability in rat liver microsomes assessed as half life incubated for 60 mins by LC-MS/MS analysis; format: ADME, Microsome
[3] = Metabolic stability in rat liver microsomes assessed as clearance incubated for 60 mins by LC-MS/MS analysis; format: ADME, Microsome; conditions: read-out: CLH
[4] = biological target: T1, 5-hydroxytryptamine receptor 1A (Homo sapiens, UniProt P08908); assay: Inhibition of 5-HT1a (unknown origin)
T1 sequence (P08908 whole entry): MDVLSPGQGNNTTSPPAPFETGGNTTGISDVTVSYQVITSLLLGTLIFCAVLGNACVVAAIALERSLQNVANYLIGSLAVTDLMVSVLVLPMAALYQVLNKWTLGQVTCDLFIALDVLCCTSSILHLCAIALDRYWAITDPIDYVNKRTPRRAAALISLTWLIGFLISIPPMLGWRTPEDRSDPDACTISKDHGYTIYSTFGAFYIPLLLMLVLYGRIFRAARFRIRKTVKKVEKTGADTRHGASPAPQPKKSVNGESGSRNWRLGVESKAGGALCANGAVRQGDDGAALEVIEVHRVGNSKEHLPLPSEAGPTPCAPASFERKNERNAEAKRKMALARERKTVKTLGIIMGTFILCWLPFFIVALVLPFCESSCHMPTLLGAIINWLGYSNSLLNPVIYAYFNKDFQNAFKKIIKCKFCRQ

[5] = biological target: 5-hydroxytryptamine receptor 2A (Homo sapiens, UniProt P28223); assay: Inhibition of 5-HT2a (unknown origin)
5-hydroxytryptamine receptor 2A, sequence (P28223 whole entry): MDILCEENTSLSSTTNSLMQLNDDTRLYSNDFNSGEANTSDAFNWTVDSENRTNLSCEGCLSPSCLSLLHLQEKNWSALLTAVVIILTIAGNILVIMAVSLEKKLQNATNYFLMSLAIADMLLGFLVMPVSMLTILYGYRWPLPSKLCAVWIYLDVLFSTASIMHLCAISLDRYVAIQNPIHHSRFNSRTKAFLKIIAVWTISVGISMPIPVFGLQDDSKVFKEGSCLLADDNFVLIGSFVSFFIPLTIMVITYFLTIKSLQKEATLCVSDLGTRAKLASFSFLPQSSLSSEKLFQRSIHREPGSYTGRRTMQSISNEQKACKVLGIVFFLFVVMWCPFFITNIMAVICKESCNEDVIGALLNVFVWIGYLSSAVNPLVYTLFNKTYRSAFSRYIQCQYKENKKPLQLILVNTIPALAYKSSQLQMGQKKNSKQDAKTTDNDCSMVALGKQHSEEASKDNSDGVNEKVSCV

[6] = biological target: T2, 5-hydroxytryptamine receptor 2C (Homo sapiens, UniProt P28335); assay: Inhibition of 5-HT2c (unknown origin)
T2 sequence (P28335 whole entry): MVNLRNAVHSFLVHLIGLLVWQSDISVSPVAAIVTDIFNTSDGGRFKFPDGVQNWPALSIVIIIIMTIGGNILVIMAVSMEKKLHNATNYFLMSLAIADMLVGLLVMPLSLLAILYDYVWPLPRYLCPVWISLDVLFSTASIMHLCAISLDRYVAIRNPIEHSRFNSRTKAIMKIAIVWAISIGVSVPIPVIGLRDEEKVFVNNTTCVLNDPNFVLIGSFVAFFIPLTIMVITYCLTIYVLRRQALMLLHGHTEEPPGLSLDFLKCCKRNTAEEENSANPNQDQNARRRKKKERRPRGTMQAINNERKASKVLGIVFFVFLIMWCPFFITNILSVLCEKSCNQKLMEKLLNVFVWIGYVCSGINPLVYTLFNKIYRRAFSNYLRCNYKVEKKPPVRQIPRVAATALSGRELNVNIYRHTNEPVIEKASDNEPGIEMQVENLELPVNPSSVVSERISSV

[7] = biological target: T3, 5-hydroxytryptamine receptor 3A (Homo sapiens, UniProt P46098); assay: Inhibition of 5-HT3 (unknown origin)
T3 sequence (P46098 whole entry): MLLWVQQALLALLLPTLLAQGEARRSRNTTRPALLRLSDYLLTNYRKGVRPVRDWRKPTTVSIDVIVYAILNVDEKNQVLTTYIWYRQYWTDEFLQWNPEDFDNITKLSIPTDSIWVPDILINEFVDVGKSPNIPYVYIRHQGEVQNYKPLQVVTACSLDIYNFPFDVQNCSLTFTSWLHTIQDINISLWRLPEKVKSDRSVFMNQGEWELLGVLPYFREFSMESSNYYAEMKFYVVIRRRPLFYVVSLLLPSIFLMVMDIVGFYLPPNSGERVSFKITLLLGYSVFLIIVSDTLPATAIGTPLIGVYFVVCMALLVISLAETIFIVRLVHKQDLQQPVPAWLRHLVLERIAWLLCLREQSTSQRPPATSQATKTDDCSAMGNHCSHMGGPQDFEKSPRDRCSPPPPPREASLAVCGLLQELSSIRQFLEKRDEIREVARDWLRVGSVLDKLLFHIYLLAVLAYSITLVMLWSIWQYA

[8] = Cmax in Sprague-Dawley rat at 2 mg/kg, iv measured by LC-MS/MS analysis; format: ADME, organism-based; parameters: route intravenous, dose 2 mg/kg; conditions: in vivo
[9] = Cmax in Sprague-Dawley rat at 5 mg/kg, po measured by LC-MS/MS analysis; format: ADME, organism-based; parameters: route oral, dose 5 mg/kg; conditions: in vivo
[10] = AUC (0 to t) in Sprague-Dawley rat at 2 mg/kg, iv measured by LC-MS/MS analysis; format: ADME, organism-based; parameters: dose 2 mg/kg; conditions: in vivo
[11] = AUC (0 to t) in Sprague-Dawley rat at 5 mg/kg, po measured by LC-MS/MS analysis; format: ADME, organism-based; parameters: dose 5 mg/kg; conditions: in vivo
[12] = Half life in Sprague-Dawley rat at 2 mg/kg, iv measured by LC-MS/MS analysis; format: ADME, organism-based; conditions: in vivo
[13] = Half life in Sprague-Dawley rat at 5 mg/kg, po measured by LC-MS/MS analysis; format: ADME, organism-based; conditions: in vivo
[14] = Volume of distribution in steady state in Sprague-Dawley rat at 2 mg/kg, iv measured by LC-MS/MS analysis; format: ADME, organism-based; conditions: in vivo, read-out: Vdss
[15] = Clearance in Sprague-Dawley rat at 2 mg/kg, iv measured by LC-MS/MS analysis; format: ADME, organism-based; conditions: in vivo
[16] = Oral bioavailability in Sprague-Dawley rat at 5 mg/kg measured by LC-MS/MS analysis; format: ADME, organism-based; conditions: in vivo
[17] = biological target: Sodium-dependent serotonin transporter (Rattus norvegicus) (UniProt P31652); assay: Antagonist activity at SERT in Sprague-Dawley rat hypothalamus assessed as PCA induced serotonin depletion at 10 mg/kg, iv measured after 30 mins by LC-MS/MS analysis; format: organism-based; conditions: filed as antagonist
Sodium-dependent serotonin transporter (Rattus norvegicus), sequence (P31652 whole entry): as the sequence (P31652 whole entry) above

[18] = tested on: Rattus norvegicus; assay: Antidepressant-like activity in rat assessed as reduction in immobility time at 3 ml/kg, sc measured after 60 mins by Forced swimming test; format: functional, organism-based
[19] = tested on: Rattus norvegicus; assay: Antidepressant-like activity in rat assessed as reduction in immobility time at 10 ml/kg, sc measured after 60 mins by Forced swimming test; format: functional, organism-based

N#Cc1ccc2[nH]cc(CCCCCN3CCN(c4ccc(-n5ccccc5=O)cc4)CC3)c2c1
IC50 [1]: 1.35 nM

N#Cc1ccc2[nH]cc(CCCN3CCN(c4ccc(-n5ccc6ncccc6c5=O)cc4)CC3)c2c1
half-life [2]: 4.41 min
CLint scaled [3]: 315 mL/min/kg
IC50 [4]: 1.7 nM
IC50 [5]: > 10 µM
IC50 [6]: > 10 µM
IC50 [7]: > 10 µM

N#Cc1ccc2[nH]cc(CCCCN3CCN(c4ccc(-n5cc(F)ccc5=O)cc4)CC3)c2c1
IC50 [1]: 3.75 nM

N#Cc1ccc2[nH]cc(CCCCN3CCN(c4ccc(-n5ccc6ccccc6c5=O)cc4)CC3)c2c1
IC50 [1]: 4.31 nM

N#Cc1ccc2[nH]cc(CCCCN3CCN(c4ccc(-n5ccc6ncccc6c5=O)cc4)CC3)c2c1
half-life [2]: 114 min
CLint scaled [3]: 12.2 mL/min/kg
Cmax [8]: 831 ng/mL
Cmax [9]: 70.5 ng/mL
AUC(0-t) [10]: 823 ng·h/mL
AUC(0-t) [11]: 189 ng·h/mL
half-life [12]: 60.6 min
half-life [13]: 49.2 min
Vd [14]: 2.47 L/kg
clearance [15]: 40.8 mL/min/kg
bioavailability [16]: 9.19%
Activity [17]: Active
Activity [18]: Active
Activity [19]: Active
IC50 [4]: 0.5 nM
IC50 [5]: > 10 µM
IC50 [6]: > 10 µM
IC50 [7]: > 10 µM

N#Cc1ccc2[nH]cc(CCCCN3CCN(c4ccc(-n5ccccc5=O)cc4)CC3)c2c1
IC50 [1]: 1.6 nM

N#Cc1ccc2[nH]cc(CCCN3CCN(c4ccc(-n5cc(F)ccc5=O)cc4)CC3)c2c1
IC50 [1]: 2.22 nM

Cc1ccn(-c2ccc(N3CCN(CCc4c[nH]c5ccc(C#N)cc45)CC3)cc2)c(=O)c1
IC50 [1]: 7.57 nM

N#Cc1ccc2[nH]cc(CCCCN3CCN(c4ccc5oc(C(N)=O)cc5c4)CC3)c2c1 [VILAZODONE]
half-life [2]: 17.9 min
CLint scaled [3]: 77.3 mL/min/kg

N#Cc1ccc2[nH]cc(CCN3CCN(c4ccc(-n5cc(F)ccc5=O)cc4)CC3)c2c1
IC50 [1]: 5.51 nM

Cc1ccn(-c2ccc(N3CCN(CCCCc4c[nH]c5ccc(C#N)cc45)CC3)cc2)c(=O)c1
IC50 [1]: 2.03 nM

COc1ccn(-c2ccc(N3CCN(CCCc4c[nH]c5ccc(C#N)cc45)CC3)cc2)c(=O)c1
IC50 [1]: 4.58 nM

N#Cc1ccc2[nH]cc(CCCN3CCN(c4ccc(-n5ccc6ccccc6c5=O)cc4)CC3)c2c1
IC50 [1]: 10.2 nM

Cc1ccn(-c2ccc(N3CCN(CCCc4c[nH]c5ccc(C#N)cc45)CC3)cc2)c(=O)c1
IC50 [1]: 2.02 nM

N#Cc1ccc2[nH]cc(CCCCN3CCN(c4ccc(-n5ccc6occc6c5=O)cc4)CC3)c2c1
half-life [2]: 312 min
CLint scaled [3]: 4.4 mL/min/kg
Cmax [8]: 694 ng/mL
Cmax [9]: 33.6 ng/mL
AUC(0-t) [10]: 559 ng·h/mL
AUC(0-t) [11]: 77 ng·h/mL
half-life [12]: 75.6 min
half-life [13]: 136 min
Vd [14]: 3.21 L/kg
clearance [15]: 59.3 mL/min/kg
bioavailability [16]: 5.8%
IC50 [4]: 0.14 nM
IC50 [5]: > 10 µM
IC50 [6]: > 10 µM
IC50 [7]: > 10 µM

N#Cc1ccc2[nH]cc(CCCCCN3CCN(c4ccc(-n5cc(F)ccc5=O)cc4)CC3)c2c1
IC50 [1]: 6 nM
